Laboratory results from patent US6420367B1, “Pyrimidine derivatives exhibiting antitumor activity” (Shionogo & Co., Ltd., priority 1998, dated 2002).
≈ marks a conversion by molar mass, not a printed value.

Assays:
[1] = test system: human squamous lung cancer RERF-RC-AI; experiment: In vitro cell growth inhibition test, MTT assay; assay type: cell-based; settings: MTT assay 4 days after compound addition
In short: (§1)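 MTT read-out; human cancer cell panel (lung squamous, lung adeno, colon, plus pancreas PANC-1).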

human colon cancer HT29 = experiment: In vitro cell growth inhibition test, MTT assay; assay type: cell-based; settings: MTT assay 4 days after compound addition
In short: as §1

[2] = test system: human squamous lung cancer Ma44; experiment: In vitro cell growth inhibition test, MTT assay; assay type: cell-based; settings: MTT assay 4 days after compound addition
In short: as §1

[3] = test system: human lung cancer RERF-LC-AI; experiment: Evaluation of in vivo antitumor efficacy, tumor growth inhibition; settings: RERF-LC-AI in Balb/c nude mice; 30 mg/kg orally daily for 14 days; P<0.01
Excerpt: (§2) Test Example 3 Evaluation of in Vivo Antitumor Efficacy
(§3) Murine colon cancer Colon 26, human lung cancer RERF-LC-AI and human lung cancer Ma44 were used. Murine- and human-derived tumor cells were maintained by serial transplantation in Balb/c and Balb/c nude mice, respectively. After tumor implantation, compound A-42 suspended in 5% methylcellulose solution were orally administered daily for 14 days. Tumor size (short diameter and long diameter) was scored throughout the experiment and tumor volume was calculated. Antitumor efficacy was evaluated as growth inhibition which was estimated by Treated/Control ratio and shown as % inhibition.

[4] = test system: DT-C cells (pGV-P-transfected v-ki-ras-transformed NIH3T3 cells); experiment: Luciferase activity in control DT-C cells (IC50-C): non-specific transcription-inhibitory effect or cytotoxicity; assay type: cell-based, mouse; settings: tested concentration nearest to 50% inhibition in DT-C cells; index of non-specific transcription inhibition or cytotoxicity
In short: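 Luciferase from an SV40 minimal promoter was read in DT-C cells (2500 cells/well) 24 h after compound addition at […] to 0.51 ng/ml in 3-fold steps. IC50-C is the tested concentration nearest 50% inhibition.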

[5] = test system: DT-R cells (pRRE3-luc-transfected v-ki-ras-transformed NIH3T3 cells); signal derived from Ras oncogene products; experiment: Inhibitory effect against cellular signaling derived from Ras oncogene products: luciferase reporter, dissociation of DT-R from DT-C activity (MAC); assay type: cell-based, mouse; settings: minimal tested concentration at which luciferase activities of DT-C cells and DT-R cells dissociated
In short: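 Value is a minimal active concentration: lowest dose where Ras-responsive reporter (DT-R) luciferase diverges from SV40-minimal-promoter control (DT-C). Both transfected v-Ki-ras NIH3T3 lines received 3-fold serial dilutions for 24 h at 37 °C in 10% FCS medium before lysis and luminometry.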

human lung cancer Ma44 = experiment: Evaluation of in vivo antitumor efficacy, tumor growth inhibition; set-up: species or system mouse; settings: Ma44 in Balb/c nude mice; 30 mg/kg orally daily for 14 days; P<0.01
Excerpt: as §2, §3

[6] = test system: Murine colon cancer Colon 26; experiment: as above; set-up: species or system mouse; settings: Colon 26 in Balb/c mice; 30 mg/kg orally daily for 14 days; P<0.01
Excerpt: as §2, §3

CCNC(=Nc1nc(C)ncc1CSc1nnc(-c2ccc(N)cc2)o1)NCC [Compound A-42]
IC50, RERF-LC-AI [1]: 0.0083 µg/mL (≈ 0.0201 µM) | IC50, HT29 (human colon cancer HT29): 0.011 µg/mL (≈ 0.0267 µM) | IC50, Ma44 [2]: 0.049 µg/mL (≈ 0.119 µM) | Growth inhibition (Treated/Control ratio, shown as % inhibition) [3]: 74% | IC50-C [4]: >10 µg/mL | MAC (Minimal Active Concentration) [5]: 0.0137 µg/mL | Growth inhibition (Treated/Control ratio, shown as % inhibition) (human lung cancer Ma44): 66% | Growth inhibition (Treated/Control ratio, shown as % inhibition) [6]: 70%
